Laboratory results from ChEMBL document CHEMBL5728321, “Therapeutically active compounds and their methods of use” (2021).

assay: In Vitro Assays for IDH1m (R132H or R132C) Inhibitors: In the primary reaction, the reduction of α-KG acid to 2-HG is accompanied by a concomitant oxidation of NADPH to NADP. The amount of NADPH remaining at the end of the reaction time is measured in a secondary diaphorase/resazurin reaction in which the NADPH is consumed in a 1:1 molar ratio with the conversion of resazurin to the highly fluorescent resorufin. […] The mixture of compound, enzyme, and cofactor is pre-incubated at room temperature for 1 hr prior to the addition of alpha-ketoglutarate. To perform the secondary reaction, 10 uL of 1× buffer containing 36 μg/ml diaphorase and 30 mM resazurin is added to the primary reaction and incubated for a further 5 minutes at 25° C. Florescence is read on a Spectramax platereader at Ex 544 Em 590. Compounds or compound dilutions are prepared in 100% DMSO concentration and diluted 1:50 into the final reaction. IDH1 wt/IDH1 R132C is assayed under similar conditions except that 1× Buffer is 50 mM K2HPO4, pH 6.5; 10 mM MgCl2; 10% glycerol; 0.03% (w/v) bovine serum albumin and final concentrations are 0.4 ug/mL (4.3 nM) IDH1 wt/IDH1 R132C heterodimer, 0.02 mM alpha-ketoglutarate, 4 uM NADPH, and either 300 μM NADP (saturated) or 30 μM NADP (without saturation). IC50s are determined.IDH1 or IDH2 wildtype (wt) and mutant heterodimers are expressed and purified by methods known in the art. For example, IDH1wt/R132m heterodimer is expressed and purified as follows. Co-expression of IDH1wt-his and IDH1R132C-flag is carried out in sf9 insect cells. Cells (25 g) are resuspended in 250 ml of 50 mM Tris, 500 mM NaCl, pH7.4, at 4° C. with stirring. Cells are disrupted with 4 passes through an M-Y110 Micro fluidizer (Microfluidics) set to 500 psi, and then centrifuged at 22,000 rcf for 20 min at 4° C. The supernatant is harvested and loaded at 15 cm/h on a Histrap FF 5*1 ml column (GE) which is equilibrated with 50 mM Tris, 500 mM NaCl, pH7.4. Host cell contaminants are removed by washing the column with equilibration buffer followed by equilibration buffer containing 20 mM imidazole and 60 mM imidazole to baseline. IDH1wt-his homodimer and IDH1wt-his/IDH1R132C-flag are eluted by equilibration buffer containing 250 mM imidazole. Fractions eluted by 250 mM imidazole are pooled together and loaded at 15 cm/h onto a column pre-packed with 10 ml ANTI-FLAG® M2 Affinity Gel (Sigma), the column is equilibrated with 50 mM Tris, 500 mM NaCl, pH7.4. After washing with equilibration buffer, IDH1wt-his/IDH1R132C-flag heterodimer is eluted by equilibration buffer containing flag peptide (0.2 mg/ml). Aliquots of IDH1wt-his/IDH1R132C-flag are flash frozen in liquid N2 and stored at −80° C. Same conditions are used for the purification of IDH1wt-his/IDH1R132H-flag.

IC50	SMILES
in the range around 0.075 µM	N#CC1(c2cc(Nc3nc(NCC(F)(F)F)nc(-c4cccc(C(F)(F)F)n4)n3)ccn2)CC1
in the range around 0.075 µM	N#CC1(c2cc(Nc3nc(NC4CC5(C4)CC(F)(F)C5)nc(-c4cccc(C(F)(F)F)n4)n3)ccn2)CC1
< 0.05 µM	N#CC1(c2cc(Nc3nc(NC4CCC(F)(F)C4)nc(-c4cccc(C(F)(F)F)n4)n3)ccn2)CC1 (centres undefined)
< 0.05 µM	N#CC1(c2cc(Nc3nc(NC4CCC(F)(F)CC4)nc(-c4cccc(C(F)(F)F)n4)n3)ccn2)CC1
